Structures can show the parent of a compound that is named as a salt.
The compounds below were run on FAS induced apoptosis (assay: Anti-fas induced apoptosis assay).
Format: cell-based
Description: Anti-fas Induced Apoptosis Assay
Cellular apoptosis may be induced by the binding of Fas ligand (FasL) to its receptor, CD95 (Fas). Conditions for an assay to measure the effect of compounds on the inhibition of the caspase-8-mediated apoptotic pathway may be found in WO0142216.

Row | IC50 [nM] | SMILES
1 | < 200 | CC(C)[C@H](NC(=O)c1nc2ccccc2[nH]1)C(=O)NC(CC(=O)O)C(=O)CF (stereo partly drawn) [Compound 5, [3S/R, (2S)]-3-{2-[(1H-Benzoimidazole-2-carbonyl)-amino]-3-methylbutyrylamino}-5-fluoro-4-oxo-pentanoic acid]
2 | < 200 | C[C@H](NC(=O)c1nc2ccccc2[nH]1)C(=O)NC(CC(=O)O)C(=O)CF (stereo partly drawn) [Compound 2, [3S/R, (2S)]-3-{2-[(1H-Benzoimidazole-2-carbonyl)-amino]-propionylamino}-5-fluoro-4-oxo-pentanoic acid, trifluoroacetate salt]

More lines, now with the values behind:

Row | SMILES | IC50 [nM]
3 | C[C@H](NC(=O)c1ncc[nH]1)C(=O)NC(CC(=O)O)C(=O)CF (stereo partly drawn) [Compound 1, [3S/R,(2S)]-5-Fluoro-3-{2-[(1H-imidazole-2-carbonyl)-amino]-propionylamino}-4-oxo-pentanoic acid, trifluoroacetate salt] | < 200
4 | CC[C@H](NC(=O)c1ncc[nH]1)C(=O)NC(CC(=O)O)C(=O)CF (stereo partly drawn) [Compound 3, [3S/R,(2S)]-5-Fluoro-3-{2-[(1H-imidazole-2-carbonyl)-amino]-butyrylamino}-4-oxo-pentanoic acid, trifluoroacetate salt] | < 200
5 | CC(C)[C@H](NC(=O)c1ncc[nH]1)C(=O)NC(CC(=O)O)C(=O)CF (stereo partly drawn) [Compound 4, [3S/R,(2S)]-5-Fluoro-3-{2-[(1H-imidazole-2-carbonyl)-amino]-3-methylbutyrylamino}-4-oxo-pentanoic acid] | < 200

From patent publication US7205327B2, “Imidazole and benzimidazole caspase inhibitors and uses thereof” (Vertex Pharmaceuticals Incorporated, priority 2000, dated 2007)
